In ChEMBL document CHEMBL1144093, “Neocrotocembranal from Croton oblongifolius” (1999) one finds Activity data, which are given here for three compounds.

One test has as its system P388. As to the kind of experiment: Cytotoxicity against mouse P388 cells by MTT colorimetric method. The class given is functional. (In general: Tetrazolium dyes change colour on reduction, which living cells bring about.)
Another test deals with Platelet. As to the kind of experiment: Inhibition of thrombin-induced rabbit washed platelets aggregation by turbidimetric method. The class given is functional, Oryctolagus cuniculus.

The source made the active and inactive calls. The rule behind the calls is not given here.

On to `C/C1=C\C=C(\C(C)C)CC/C(C(=O)O)=C\CC/C(C)=C/CC1` [NEOCROTOCEMBRANEIC ACID], for which the Activity in the test on P388 was 41.47 µg/mL. For `C/C1=C\CC/C(C)=C/C=C(/C(C)C)CC/C(C(=O)O)=C/CC1`, the outcome in the test on P388 was inactive. As to `C/C1=C\C=C(\C(C)C)CC/C(C=O)=C\CC/C(C)=C/CC1` [NEOCROTOCEMBRANAL], the Activity in the test with Platelet was determined as 47.21 µg/mL; with P388, 6.48 µg/mL.
